Reference: patent US10501817B2, “Process for the manufacture of co-crystallized sucrose natural sweeteners and the products thereof” (IMPERIAL SUGAR COMPANY, priority 2010, dated 2019)

What was measured:
[1] = cited from earlier work; for times sweeter than sucrose: sweetness relative to sucrose/sugar
[2] = Taste testing of sweetener compositions in water by trained descriptive panel; type: in vivo, human; conditions: in water at room temperature; 12-point scale; aftertaste at 30 seconds
From the text: A panel of trained and experienced descriptive panelists (Food Marketing Support Services, Inc.) tasted, described and documented sensory behavior of selected sweetener compositions in water at ambient (room) temperature. The sweetener samples tested were: sugar (100%; Imperial Sugar); Truvia (100%), a consumer brand Stevia sweetener containing a mixture erythritol and Rebiana; Reb-A 97 (100%; Pure Circle), a sugar (75% reduction)—rebaudioside A blended or granulized mixture; a sugar (50% reduction)—rebaudioside A blended or granulized mixture; a sugar/rebaudioside A co-crystallization product in accordance with the instantly described process and the resultant product with a 50% calorie reduction (Co-Crystal (50% Reduction)); and, a sugar/rebaudioside A co-crystallization product in accordance with the instantly described process and the resultant product with a 75% calorie reduction (Co-Crystal (75% Reduction).
Sample Preparation: On the day of the testing panel, a predetermined weight of sugar or sweetener was weighed out. […]
The beaker is gently swirled five (5) times, and the watch glass cover is removed. […] Sweetness was evaluated relative to standardized concentrations of sucrose in water. Samples were also evaluated for character nuances and quantifying attribute intensities such as residual mouth sensations and aftertastes, using a 12-point scale. […]

For C=C1C[C@@]23CC[C@H]4[C@@](C)(CCC[C@@]4(C)C(=O)O[C@@H]4O[C@H](CO)[C@@H](O)[C@H](O)[C@H]4O)[C@@H]2CC[C@]1(O[C@@H]1O[C@H](CO)[C@@H](O)[C@H](O)[C@H]1O[C@@H]1O[C@H](CO)[C@@H](O)[C@H](O)[C@H]1O)C3 [stevioside], which “times sweeter than sucrose” value [1] is on record?
Its value is “about 200 times”.

Which “astringency, bitterness and aftertaste among diterpenoid glycoside sweeteners of Stevia extracts” value ([1]; in vivo) does the source give for C=C1C[C@@]23CC[C@H]4[C@@](C)(CCC[C@@]4(C)C(=O)O[C@@H]4O[C@H](CO)[C@@H](O)[C@H](O)[C@H]4O)[C@@H]2CC[C@]1(O[C@@H]1O[C@H](CO)[C@@H](O)[C@H](O[C@@H]2O[C@H](CO)[C@@H](O)[C@H](O)[C@H]2O)[C@H]1O[C@@H]1O[C@H](CO)[C@@H](O)[C@H](O)[C@H]1O)C3 [rebaudioside A] here?
Its value is “the least astringent, the least bitter, and with the least persistent aftertaste”.

And the “times sweeter than sucrose” value [1]?
Its value is 200-300 times.

What about the “flavor/taste profile compared with pure sugar” value [2] of the same compound?
Its value is “most extreme flavor profile across the array”.
